# Experiments:
# HL60 cells = test: Time-of-flight (TOF) optophoretic testing of HL60 cells treated with DMSO; format: cell-based; details: 1% DMSO, after 40 hours of treatment, compared to non-treated HL60 cells (FIGS. 44 and 45)
# Description: The system includes multiple, preferably three, detecting positions, 31, 32 and 33. The detecting positions 31, 32, 33, may be associated with detection of times, e.g., t1, t2, t3. The times may be absolute, relative or elapsed. The two outermost detecting positions, i.e., 31 and 33 in this example, are separated by a distance L. A representative length L when detecting biological particles would be substantially 200 microns or less. The difference between the first two detecting positions t1, t2, define a time interval T1. T1 may also be associated with a first detection zone corresponding to the motion of the particle 36 through the zone T1. The second and third detecting positions t2, t3, define a second detection zone T2. The second detection zone also corresponds to the time difference between t2, t3. In one preferred embodiment, the distance between t2 t3 is equal to the distance between t1 t2. In operation, the cell or particle 36 flows from the inlet 22 through the channel 20 through the outlet 24. For biological detection purposes, representative particle speeds are from substantially 50 to substantially 200 microns per second. As the cell or particle 36 flows through the first detection zone T1, the time-of-flight through that zone is measured, that is the time it takes for the cell or particle 36 to move from position t1 to t2. An optical gradient 38 is disposed within zone T2. […]
# T cells = test: Time-of-flight (TOF) optophoretic testing of activated and unactivated T cells; format: cell-based; details: T cells activated with 0.5 μml PMA and 50 ng/ml ionomycin together, overnight, compared to unstimulated T cells (FIG. 46)
# Description: The system includes multiple, preferably three, detecting positions, 31, 32 and 33. The detecting positions 31, 32, 33, may be associated with detection of times, e.g., t1, t2, t3. The times may be absolute, relative or elapsed. The two outermost detecting positions, i.e., 31 and 33 in this example, are separated by a distance L. A representative length L when detecting biological particles would be substantially 200 microns or less. The difference between the first two detecting positions t1, t2, define a time interval T1. T1 may also be associated with a first detection zone corresponding to the motion of the particle 36 through the zone T1. The second and third detecting positions t2, t3, define a second detection zone T2. The second detection zone also corresponds to the time difference between t2, t3. In one preferred embodiment, the distance between t2 t3 is equal to the distance between t1 t2.
# In operation, the cell or particle 36 flows from the inlet 22 through the channel 20 through the outlet 24. For biological detection purposes, representative particle speeds are from substantially 50 to substantially 200 microns per second. As the cell or particle 36 flows through the first detection zone T1, the time-of-flight through that zone is measured, that is the time it takes for the cell or particle 36 to move from position t1 to t2. An optical gradient 38 is disposed within zone T2. […]
Structure (SMILES),TOF ratio t2/t1 (HL60 cells),TOF ratio t2/t1 (T cells)
"C[S+](C)[O-] [DMSO, dimethyl sulfoxide]",lower TOF ratio,–
"CCCCCCCCCCCCCC(=O)O[C@@H]1[C@@H](C)[C@@]2(O)[C@@H](C=C(CO)C[C@]3(O)C(=O)C(C)=C[C@@H]23)[C@@H]2C(C)(C)[C@]12OC(C)=O [PMA, Phorbol mystirate acetate]",–,lower TOF ratio
C[C@H](CCC(=O)O)C[C@H](C)C[C@H](C)C(=O)/C=C(\O)[C@H](C)C[C@H](C)C/C=C/[C@@H](C)[C@@H](O)[C@@H](C)[C@@H](O)C[C@@H]1CC[C@@](C)([C@H]2CC[C@@](C)([C@@H](C)O)O2)O1 [ionomycin],–,lower TOF ratio

# — patent US20040067167A1, “Methods and apparatus for optophoretic diagnosis of cells and particles” (Genoptix, Inc., priority 2002, published 2004)
